Tested on: MPNST complex spheroid with HUVEC/MSC, growth, % test/control
Experiment: Anticancer human tumor MPNST cell line growth inhibition [Asc];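 also: compounds left on spheroids for seven days before reading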
Conditions: for IC50: curve of first compound; for viability, T/C: stronger effect = lower value
Experimental: Multicellular complex tumor spheroid response to apoptosis pathway targeting inhibitors Alrizomadlin, Pelcitoclax, and Dasminapant in combination with a variety of drugs and investigational agents in selected tumor cell lines
The MDM2 inhibitor alrizomadlin, the Bcl-2/Bcl-xL inhibitor pelcitoclax, and the IAPs inhibitor dasminapant were evaluated both individually and in combination with standard of care and investigational anticancer small molecules within a complex spheroid model of solid tumors. . Complex spheroids include a stromal component modeled by human endothelial cells (HUVEC) and fibroblasts modeled by human mesenchymal stem cells (MSCs). The concentration ranges selected for each drug and investigational agent were based upon clinically achievable concentrations if the clinical Cmax of the agent was known.
Compounds. The drugs and investigational agents: alrizomadlin (APG-115; NSC831270), pelcitoclax (APG-1252; NSC835773), dasminapant (APG-1387;NSC834197), TAK-243 (NSC785004), copanlisib (NSC809693), olaparib (NSC753686), talazoparib (NSC767125), cobimetinib (NSC 768068), eltanexor (KPT-8602, NSC 794443), abemaciclib (NSC 768073), sotorasib (NSC818433), adagrasib (NSC 831453), MRTX-1133 (NSC 836407), Iadademestat (ORY1001, NSC 806812), and RMC-4630 (NSC839698), were obtained from the NCI Developmental Therapeutics Program Chemical Repository. The FDA-approved anticancer drug set is available from the Developmental Therapeutics Program at https://dtp.cancer.gov/organization/dscb/obtaining/available plates.htm. […] The stock solutions were prepared in dimethyl sulfoxide (DMSO, Sigma-Aldrich, St. Louis, MO, cat. D2650) at 800-fold the tested concentration and stored at -70 degrees C prior to their use. All drugs and investigational agents were tested over a range starting from a high concentration at or near the clinical Cmax and decreasing in half-log increments. If the clinical Cmax for an agent had not been determined, the highest concentration tested was 10 microM.
The patient-derived cancer (PDC) cell lines include five colon adenocarcinomas: 186277-243-T-J2-PDC, 616215-338-R-J1-PDC, 439559-082-T-J2-PDC, 463943-066-T-J2-PDC, and 519858-162-T-J1-PDC; three pancreatic carcinomas: 323965-272-R-J2-PDC, 521955-158-R6-J3-PDC, and 521955-158-R2-J5-PDC; two uterine sarcomas: 327498-152-R-J2-PDC and 993429-296-R-J1-PDC; two rhabdomyosarcomas: 755483-174-R-J1-PDC and 772245-204-R-J1-PDC; two soft tissue sarcomas: 126254-015-R-J1-PDC and 494315-158-R-J1-PDC; two malignant fibrous histiocytomas: 317291-083-R-J1-PDC and 596521-263-R-J1-PDC; two breast carcinomas: 171881-019-R-J1-PDC and 885512-296-R-J2-PDC; and one ovarian carcinoma: 6556581-035-R-J-PDC were obtained from the NCI PDMR, (https://pdmr.cancer.gov). The established cell lines HSSY-2 synovial sarcoma (RRID:CVCL 8719), SYO-1 synovial sarcoma (RRID:CVCL_7146), MPNST malignant peripheral neural sheath tumor were obtained from the Sloan Kettering Institute. The following established cell lines were purchased from the American Type Culture Collection (ATCC, Manassas, VA), Sor the received from the NCI repository:, PANC-1 pancreatic carcinoma (CRL-1469, RRID:CVCL_0480), OVCAR-5 ovarian carcinoma (RRID:CVCL_1628), OVCAR-8 ovarian carcinoma (RRID:CVCL_1629), , MCF-7 breast carcinoma (CRL-12584, RRID:CVCL_0031), MDA-MB-231 breast carcinoma (CRL-12532, RRID:CVCL_0062), NCI-H1876 small cell lung carcinoma (CRL-5902, RRID:CVCL_1503), NCI-H510A small cell lung carcinoma (HTB-184, RRID:CVCL_1565), NCI-H1417 (CRL-5869, RRID:CVCL_1469), and NCI-H196 small cell lung carcinoma (CRL-5823, RRID:CVCL_1509). Dr. Peter Houghton (Greehey Children's Cancer Research Institute, University of Texas Health Science Center, San Antonio, TX) provided Rh-18 rhabdomyosarcoma (RRID:CVCL_1659). Pooled donor human umbilical vein endothelial cells (HUVEC, Lonza, cat. CC-2519) and human mesenchymal stem cells (hMSC, Lonza, cat. PT-2501) were purchased from Lonza (Walkersville, MD).
Cell Culture. […]

[1] = second compound 0.03 µM, first compound 0.00316 µM
[2] = second compound 0.03 µM, first compound 0.01 µM
[3] = second compound 0.03 µM, first compound 0.0316 µM
[4] = second compound 0.03 µM, first compound 0.1 µM
[5] = second compound 0.0949 µM, first compound 0.00316 µM
[6] = second compound 0.0949 µM, first compound 0.01 µM
[7] = second compound 0.0949 µM, first compound 0.0316 µM
[8] = second compound 0.0949 µM, first compound 0.1 µM
[9] = second compound 0.3 µM, first compound 0.00316 µM
[10] = second compound 0.3 µM, first compound 0.01 µM
[11] = second compound 0.3 µM, first compound 0.0316 µM
[12] = second compound 0.3 µM, first compound 0.1 µM
[13] = second compound 0.949 µM, first compound 0.00316 µM
[14] = second compound 0.949 µM, first compound 0.01 µM
[15] = second compound 0.949 µM, first compound 0.0316 µM
[16] = second compound 0.949 µM, first compound 0.1 µM
[17] = second compound 3 µM, first compound 0.00316 µM
[18] = second compound 3 µM, first compound 0.01 µM
[19] = second compound 3 µM, first compound 0.0316 µM
[20] = second compound 3 µM, first compound 0.1 µM

Compound COc1c(OCCCN2CCOCC2)ccc2c3n(c(=NC(=O)c4cnc(N)nc4)nc12)CCN3 + CCN1C(C(=O)NC23CCC(C(=O)O)(CC2)CC3)C(c2cccc(Cl)c2F)C2(C(=O)Nc3cc(Cl)ccc32)C12CCCCC2 has an IC50 (second compound 0.03 µM) of 0.0254 µM, an IC50 (second compound 0.0949 µM) of 0.0297 µM and an IC50 (second compound 0.3 µM) of 0.0384 µM. The IC50 (second compound 0.949 µM) was 0.0272 µM, the IC50 (second compound 3 µM) was 0.0209 µM and the viability, T/C [1] was 66.2%. It also gave a viability, T/C [2] of 58.8%, a viability, T/C [3] of 47% and a viability, T/C [4] of 37.1%. For the same compound, the viability, T/C (second compound 0.03 µM, first compound 0.316 µM) was 25.9%, the viability, T/C (second compound 0.03 µM, first compound 1 µM) was 14.6% and the viability, T/C [5] was 75.6%. It also gave a viability, T/C [6] of 58.2%, a viability, T/C [7] of 51.5% and a viability, T/C [8] of 36.5%. It also gave a viability, T/C (second compound 0.0949 µM, first compound 0.316 µM) of 30.3%, a viability, T/C (second compound 0.0949 µM, first compound 1 µM) of 17.4% and a viability, T/C [9] of 77.3%. For the same compound, the viability, T/C [10] was 64.1%, the viability, T/C [11] was 55% and the viability, T/C [12] was 36.5%. It also gave a viability, T/C (second compound 0.3 µM, first compound 0.316 µM) of 24.4%, a viability, T/C (second compound 0.3 µM, first compound 1 µM) of 17.4% and a viability, T/C [13] of 81.3%. The viability, T/C [14] was 60.4%, the viability, T/C [15] was 52.2% and the viability, T/C [16] was 33.2%. The viability, T/C (second compound 0.949 µM, first compound 0.316 µM) was 21%, the viability, T/C (second compound 0.949 µM, first compound 1 µM) was 17.3% and the viability, T/C [17] was 74%. For the same compound, the viability, T/C [18] was 62%, the viability, T/C [19] was 43% and the viability, T/C [20] was 28%. For the same compound, the viability, T/C (second compound 3 µM, first compound 0.316 µM) was 19.1% and the viability, T/C (second compound 3 µM, first compound 1 µM) was 15.6%.
NC(=O)C(=Cn1cnc(-c2cc(C(F)(F)F)cc(C(F)(F)F)c2)n1)c1cncnc1 + CCN1C(C(=O)NC23CCC(C(=O)O)(CC2)CC3)C(c2cccc(Cl)c2F)C2(C(=O)Nc3cc(Cl)ccc32)C12CCCCC2 showed an IC50 (second compound 0.03 µM) of 0.172 µM, an IC50 (second compound 0.0949 µM) of 0.139 µM and an IC50 (second compound 0.3 µM) of 0.198 µM. For the same compound, the IC50 (second compound 0.949 µM) was 0.088 µM, the IC50 (second compound 3 µM) was 0.0808 µM and the viability, T/C (second compound 0.03 µM, first compound 0.000949 µM) was 64.2%. It also gave a viability, T/C (second compound 0.03 µM, first compound 0.003 µM) of 78.6%, a viability, T/C (second compound 0.03 µM, first compound 0.00949 µM) of 66.9% and a viability, T/C (second compound 0.03 µM, first compound 0.03 µM) of 64%. For the same compound, the viability, T/C (second compound 0.03 µM, first compound 0.0949 µM) was 56.2%, the viability, T/C (second compound 0.03 µM, first compound 0.3 µM) was 43.7% and the viability, T/C (second compound 0.0949 µM, first compound 0.000949 µM) was 75%. It also gave a viability, T/C (second compound 0.0949 µM, first compound 0.003 µM) of 90.7%, a viability, T/C (second compound 0.0949 µM, first compound 0.00949 µM) of 79.7% and a viability, T/C (second compound 0.0949 µM, first compound 0.03 µM) of 71%. For the same compound, the viability, T/C (second compound 0.0949 µM, first compound 0.0949 µM) was 55.5%, the viability, T/C (second compound 0.0949 µM, first compound 0.3 µM) was 40.1% and the viability, T/C (second compound 0.3 µM, first compound 0.000949 µM) was 90.9%. It also gave a viability, T/C (second compound 0.3 µM, first compound 0.003 µM) of 99.1%, a viability, T/C (second compound 0.3 µM, first compound 0.00949 µM) of 90.9% and a viability, T/C (second compound 0.3 µM, first compound 0.03 µM) of 79.3%. The viability, T/C (second compound 0.3 µM, first compound 0.0949 µM) was 64.8%, the viability, T/C (second compound 0.3 µM, first compound 0.3 µM) was 42% and the viability, T/C (second compound 0.949 µM, first compound 0.000949 µM) was 95.2%. It also gave a viability, T/C (second compound 0.949 µM, first compound 0.003 µM) of 97%, a viability, T/C (second compound 0.949 µM, first compound 0.00949 µM) of 89.3% and a viability, T/C (second compound 0.949 µM, first compound 0.03 µM) of 71.6%. The viability, T/C (second compound 0.949 µM, first compound 0.0949 µM) was 47.8%, the viability, T/C (second compound 0.949 µM, first compound 0.3 µM) was 42.5% and the viability, T/C (second compound 3 µM, first compound 0.000949 µM) was 93.9%. For the same compound, the viability, T/C (second compound 3 µM, first compound 0.003 µM) was 77.8%, the viability, T/C (second compound 3 µM, first compound 0.00949 µM) was 66.1% and the viability, T/C (second compound 3 µM, first compound 0.03 µM) was 56%. For the same compound, the viability, T/C (second compound 3 µM, first compound 0.0949 µM) was 50.7% and the viability, T/C (second compound 3 µM, first compound 0.3 µM) was 42.6%.
With NC1CCC(NC2CC2c2ccccc2)CC1 (stereo not given) + CCN1C(C(=O)NC23CCC(C(=O)O)(CC2)CC3)C(c2cccc(Cl)c2F)C2(C(=O)Nc3cc(Cl)ccc32)C12CCCCC2 the IC50 (second compound 0.03 µM) was > 0.1 µM, the IC50 (second compound 0.0949 µM) was > 0.1 µM and the IC50 (second compound 0.3 µM) was > 0.1 µM. For the same compound, the IC50 (second compound 0.949 µM) was > 0.1 µM, the IC50 (second compound 3 µM) was > 0.1 µM and the viability, T/C (second compound 0.03 µM, first compound 0.000316 µM) was 79.1%. For the same compound, the viability, T/C (second compound 0.03 µM, first compound 0.001 µM) was 72.2%, the viability, T/C [1] was 67.4% and the viability, T/C [2] was 74.8%. The viability, T/C [3] was 87%, the viability, T/C [4] was 82.7% and the viability, T/C (second compound 0.0949 µM, first compound 0.000316 µM) was 98.7%. It also gave a viability, T/C (second compound 0.0949 µM, first compound 0.001 µM) of 87.6%, a viability, T/C [5] of 92.6% and a viability, T/C [6] of 91.5%. For the same compound, the viability, T/C [7] was 63.7%, the viability, T/C [8] was 82.7% and the viability, T/C (second compound 0.3 µM, first compound 0.000316 µM) was 81.7%. For the same compound, the viability, T/C (second compound 0.3 µM, first compound 0.001 µM) was 85.7%, the viability, T/C [9] was 83.8% and the viability, T/C [10] was 90.8%. It also gave a viability, T/C [11] of 69.5%, a viability, T/C [12] of 75% and a viability, T/C (second compound 0.949 µM, first compound 0.000316 µM) of 87.9%. It also gave a viability, T/C (second compound 0.949 µM, first compound 0.001 µM) of 87.7%, a viability, T/C [13] of 98% and a viability, T/C [14] of 74.2%. It also gave a viability, T/C [15] of 72.5%, a viability, T/C [16] of 66.7% and a viability, T/C (second compound 3 µM, first compound 0.000316 µM) of 83.9%. For the same compound, the viability, T/C (second compound 3 µM, first compound 0.001 µM) was 81.4%, the viability, T/C [17] was 60.3% and the viability, T/C [18] was 59.8%. For the same compound, the viability, T/C [19] was 68.9% and the viability, T/C [20] was 65.8%.

From PubChem BioAssay AID1963442 (Molecular Pharmacology Branch, DTP, NCI, 2024)
